From ChEMBL document CHEMBL1201862, “PubChem BioAssay data set” (2004)
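Exposure lasted 48 hours, with cells grown in 96-well plates and compounds tested at five concentrations. At the GI50, growth is halved.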 Activity calls are given as the source filed them. Rule as the data show it: active = GI50 up to about 1.1 µM and inactive = higher.

Columns and labels:
Test in all cases: NCI-60 cell line screen, 48 h
[1] = test system: OVCAR-8
[2] = test system: SNB-19
[3] = test system: SN12C
[4] = test system: UO-31
[5] = test system: HOP-62
[6] = test system: SF-539
[7] = test system: NCI-H522
[8] = test system: MDA-N
[9] = test system: HCT-116
[10] = test system: UACC-62
[11] = test system: MOLT-4
[12] = test system: 786-0
[13] = test system: A549
[14] = test system: Malme-3M
[15] = test system: KM12
[16] = test system: MDA-MB-231
[17] = test system: CAKI-1
[18] = test system: RPMI-8226
[19] = test system: MDA-MB-435
[20] = test system: SF-268

Measured: GI50

CC(C)NC(=O)OCc1c(COC(=O)NC(C)C)c(-c2ccc[n+](COC(=O)Cc3ccccc3)c2)n2c1CCC2
inactive: [1] 37.8 µM | [2] 94.8 µM | [3] 30.2 µM | [4] 27.5 µM | [5] 31.7 µM | [6] 34.5 µM | [7] 19 µM | [8] 80 µM | [9] 30.4 µM | [10] 17 µM | [11] 6.76 µM | [12] 17.3 µM | [13] 44.8 µM | [14] 49 µM | [15] > 100 µM | [16] 26.2 µM | [17] 9.48 µM | [18] 23.6 µM | [19] 71.1 µM | [20] 26.9 µM

C[C@@]1(O)C[C@@H](N2C(=O)O[C@@H](c3ccccc3)[C@H]2c2ccccc2)[C@@H]1COCc1ccccc1
inactive: [1] 17.8 µM | [2] 34.8 µM | [3] 17.4 µM | [4] 21.6 µM | [5] 29.2 µM | [6] 20.8 µM | [7] 15 µM | [8] 16.2 µM | [9] 19.5 µM | [10] 11.3 µM | [11] 5.41 µM | [12] 21.3 µM | [13] 22.6 µM | [14] 20.6 µM | [15] 19.6 µM | [16] 15.5 µM | [17] 22 µM | [18] 7.74 µM | [19] 28.4 µM | [20] 18.2 µM

COc1ccc(N2C(=O)C3c4[nH]c5ccc(OCc6ccccc6)cc5c4C4CCC(c5ccccc5)CC4C3C2=O)cc1 (stereo not given)
inactive: [1] 8.91 µM | [2] 11 µM | [3] 33.7 µM | [4] 53.6 µM | [5] 3.37 µM | [6] 3.01 µM | [7] 7.43 µM | [8] 22.6 µM | [9] 11.1 µM | [10] 6.95 µM | [11] 14.7 µM | [12] 2.67 µM | [13] 9.64 µM | [14] 2.35 µM | [15] 27 µM | [16] 6.35 µM | [17] 8.18 µM | [18] 6.61 µM | [19] 3.22 µM | [20] 6.85 µM

C[N+]1(C)CCOC(O)(c2ccccc2)C1 (stereo not given)
inactive: [1] > 100 µM | [2] > 100 µM | [3] > 100 µM | [4] > 100 µM | [5] > 100 µM | [6] > 100 µM | [7] > 100 µM | [8] > 100 µM | [9] > 100 µM | [10] > 100 µM | [11] > 100 µM | [12] > 100 µM | [13] > 100 µM | [14] > 100 µM | [15] > 100 µM | [16] > 100 µM | [17] > 100 µM | [18] > 100 µM | [19] > 100 µM | [20] > 100 µM

CCOC(=O)/C=C(/OCC)[C@@H]1C(C(=O)c2ccc(Cl)cc2)[C@H]1/C(=C\C(=O)OCC)OCC (stereo not given in full)
inactive: [1] > 100 µM | [2] > 100 µM | [3] > 100 µM | [4] 8.79 µM | [5] > 100 µM | [6] > 100 µM | [7] > 45.2 µM | [8] > 100 µM | [9] 15.5 µM | [10] > 30.7 µM | [11] > 20.5 µM | [12] > 100 µM | [13] > 100 µM | [14] > 100 µM | [15] 56.9 µM | [16] > 44.4 µM | [17] > 100 µM | [18] 5.35 µM | [19] > 100 µM | [20] > 100 µM

NC1CCCCC1NCCNC1CCCCC1N (stereo not given)
inactive: [1] > 100 µM | [2] > 100 µM | [3] > 100 µM | [4] > 100 µM | [5] 53.7 µM | [6] > 100 µM | [7] > 100 µM | [8] > 100 µM | [9] 47.5 µM | [10] > 100 µM | [11] 36.1 µM | [12] > 100 µM | [13] 28.8 µM | [14] > 100 µM | [15] > 100 µM | [16] > 100 µM | [17] 82.4 µM | [18] > 100 µM | [19] > 100 µM | [20] > 100 µM

OCC1OC(O[C@H]2CN3[C@H](O)[C@@H](O)[C@H](O)[C@H]3C2O)C(O)C(O)C1O (stereo not given in full)
inactive: [1] > 100 µM | [2] > 100 µM | [3] > 100 µM | [4] > 100 µM | [5] > 100 µM | [6] > 100 µM | [7] > 100 µM | [8] > 100 µM | [9] > 100 µM | [10] > 100 µM | [11] > 100 µM | [12] > 100 µM | [13] > 100 µM | [14] > 100 µM | [15] > 100 µM | [16] > 100 µM | [17] > 100 µM | [18] > 100 µM | [19] > 100 µM | [20] > 100 µM

CCCN1C(=O)/C(=C\c2ccc(OC)c(OC)c2)S/C1=N\c1ccccc1
inactive: [1] > 100 µM | [2] 27.5 µM | [3] > 100 µM | [4] > 100 µM | [5] 17.6 µM | [6] 24.7 µM | [7] > 100 µM | [8] > 100 µM | [9] > 100 µM | [10] > 100 µM | [11] > 100 µM | [12] 17.5 µM | [13] > 100 µM | [14] > 100 µM | [15] > 100 µM | [16] > 100 µM | [17] > 100 µM | [18] > 100 µM | [19] > 100 µM | [20] 38.6 µM

CC(C)(C)c1cc(OCc2nn3c(Cc4ccccc4)nnc3s2)c(Cl)cc1OCc1nn2c(Cc3ccccc3)nnc2s1
inactive: [1] 25.3 µM | [2] 80.9 µM | [3] 34.8 µM | [4] 31.1 µM | [5] 94.2 µM | [6] 55.5 µM | [7] 23.5 µM | [8] 36.5 µM | [9] 16.6 µM | [10] 24.1 µM | [11] 8.93 µM | [12] 30 µM | [13] 29.7 µM | [14] 12 µM | [15] 26.9 µM | [16] 33.3 µM | [17] 23.6 µM | [18] 10.6 µM | [19] 26.4 µM | [20] 55.5 µM

Nc1nc(Cl)cc(NCC2(CO)CC(OCc3ccccc3)C2)n1 (stereo not given)
inactive: [1] 71.6 µM | [2] 41.9 µM | [3] > 100 µM | [4] > 100 µM | [5] 68.4 µM | [6] > 100 µM | [7] 93.1 µM | [8] > 100 µM | [9] 40.5 µM | [10] 96.4 µM | [11] > 10 µM | [12] > 100 µM | [13] 54.8 µM | [14] > 100 µM | [15] > 100 µM | [16] 63.2 µM | [17] > 100 µM | [18] 45.9 µM | [19] 43.6 µM | [20] 14.8 µM
